Assay results: PMC8761912, “Cryptosporidium parvum Pyruvate Kinase Inhibitors With in vivo Anti-cryptosporidial Efficacy” (Frontiers in Microbiology, 2022)

Columns and labels:
[1] = Physicochemical properties adapted from PubChem; conditions: based on Supplementary Table 2 properties
From the text: Supplementary Table S2. Physicochemical properties of identified CpPyK inhibitors (Adapted from: https://pubchem.ncbi.nlm.nih.gov).
NSC Molecular Molecular Number of Number of Number of Polar number IUPAC name formula weight cLog(p) Hydrogen bond Hydrogen bond rotatable surface donors acceptors bonds area (Å²) […]

[2] = Tolerability in uninfected mice, daily oral gavage; assay type: in vivo; conditions: 10 mg/kg daily oral administration, 8 days
Protocol: Eight weeks old male interferon-gamma knockout (IFN-γ KO) mice (B6.129S7-Ifng^TM1Ts/J) were purchased from The Jackson Laboratory, United States, and allowed to quarantine and acclimatize for 1 week before the commencement of experiments. Before the start of the infection assays in mice, the tolerability of each inhibitor was determined by daily oral gavage with varying dosages (0–10 mg/kg mouse bodyweight) in groups of mice (n = 3 mice per group) for 8 days. During this period, mice were monitored daily for any changes in physical and mental activity, feeding, body weight, body temperature, fur condition, and body posture. […] Mice were divided into infected and uninfected groups (n = 3 mice per group) and each individual mouse was housed in a separate cage lined with sterile gauze bedding. Each mouse from the infected group was infected by oral gavage administration of 10^4 C. parvum AUCP-1 isolate oocysts suspended in 50 μl of PBS. Beginning day 3 PI, groups of mice were orally treated with CpPyK inhibitors (at the specified doses), sham (100 μl of 5% DMSO in PBS), or 1,000 mg/kg paromomycin (in sterile water) once daily for a total of 8 days. Fecal pellets were collected daily in individual sterile 15 ml tubes, and submerged in an equivalent volume of PBS containing a cocktail of penicillin (100 units/ml), streptomycin (100 μg/ml), chloramphenicol (34 μg/ml), and amphotericin (0.25 μg/ml), and stored at 4°C until use. Three independent replicate infection assays were performed. Mice were sacrificed at day 11 PI, and 5 cm of the distal small intestine just anterior to the cecum was resected and submerged in 10% neutral buffered formalin and submitted for histopathological processing in the Comparative Biosciences Histology Laboratory at the University of Illinois at Urbana-Champaign. Briefly, intestinal tissues preserved in 10% neutral buffered formalin were washed in 70% ethanol, embedded in paraffin, and sectioned transversely at a thickness of 5 μm. Sections were stained with hematoxylin and eosin. The slides were imaged using a Zeiss microscope fitted with a color camera.

[3] = In vitro compound cytotoxicity assay (WST-1); assay type: cell-based; conditions: human, uninfected HCT-8 cells
Protocol: Compounds were tested for cytotoxicity in human ileocecal colorectal adenocarcinoma cells [HCT-8 (HRT-18); ATCC® CCL-244™, CVCL_2478] by using the cell proliferation reagent WST-1 (Roche) according to the manufacturer’s protocol. The WST-1 assay is a quantitative colorimetric assay for measurement of metabolically active cells. This assay is based on the reduction of the tetrazolium salt (WST-1) by viable cells. About 5 × 10^4 HCT-8 cells were seeded per well in 96-well plates and grown overnight in 200 μl of RPMI-1640 medium (without phenol red) (Gibco) supplemented with 2.5 g/L of glucose, 1 mM sodium pyruvate, 1.5 g/L of sodium bicarbonate, 10% heat-inactivated FBS (Gibco), and 1 × Antibiotic-Antimycotic (Gibco) at 37°C with 5% CO2 in a humidified incubator. Upon reaching 80–90% confluency, cells were treated with the chemical compounds reconstituted in DMSO for 24 h. The volume of DMSO was kept below 1% of the total culture volume in all the wells to avoid DMSO cytotoxicity. Control wells received equivalent volumes of DMSO used in the reconstituted compounds. After 24 h of culture, 10 μl of the WST-1 reagent was added to each well, and the plates were incubated for 1 h at 37°C with 5% CO2 under dark conditions. The plates were shaken thoroughly and 150 μl of the medium from each well was transferred to a new clear flat-bottom black 96-well plate (Corning). Absorbance was read at a test wavelength of 440 nm and a reference wavelength of 690 nm using a multi-mode microplate reader (Spectra Max iD3; Molecular Devices, United States). The mean percent toxicity (MPT) of each compound was derived by dividing the difference in absorbance (OD) between the compound-treated cells and the DMSO-treated cells by the absorbance from the DMSO-treated cells and multiplying the product by 100:
(2) MPT=[(MeanODDMSO-treated-MeanODCompound-treated)÷MeanODDMSO-treated]×100.
The half maximal cytotoxic concentration (CC50) values were determined by using non-linear regression analysis in GraphPad PRISM® v8. Assays were performed in triplicate and repeated three times.

[4] = Solubility; assay type: physicochemical; conditions: DMSO

Row | Compound | conformity to Lipinski's and Veber's rules for drug-likeness [1] | toxicity signs in uninfected mice [2] | CC50 at 24 h [3] [µM] | solubility in DMSO [4]
1 | c1ccc(-c2nnc(-c3ccccn3)[nH]2)nc1 [NSC234945, 2-(3-pyridin-2-yl-1H-1,2,4-triazol-5-yl)pyridine] | conform | did not induce any toxicity signs | 432 | high solubility in DMSO
2 | CCOc1ccc(/C=C2\CCc3ccccc3C2=O)cc1 [NSC252172, (2E)-2-[(4-ethoxyphenyl)methylidene]-3,4-dihydronaphthalen-1-one] | conform | did not induce any toxicity signs | 266 | 
3 | Cc1cc2c(c(C#N)c1C)NC=NC2C (stereo not shown) [NSC303244, 4,6,7-trimethyl-1,4-dihydroquinazoline-8-carbonitrile] | conform | did not induce any toxicity signs | 660 | 
4 | N#C/C(=C\c1cc(O)c(O)c(O)c1)C(N)=O [NSC638080, (E)-2-cyano-3-(3,4,5-trihydroxyphenyl)prop-2-enamide] | conform | did not induce any toxicity signs | 750 | 
